Assay results: patent publication US6677368B2, “4-aryl substituted indolinones” (Sugen, Inc., priority 2000, dated 2004)
Blank lines part the entries; values can stand above or below the molecule they belong to.

Experiments:
FLK-1 = target: T1, FLK-1 (Mus musculus, UniProt P35918); experiment: GST-FLK-1 bioassay (tyrosine kinase activity on poly(glu-tyr)); assay type: biochemical; conditions: GST-Flk1, poly(glu-tyr) substrate, 0.5 μM ATP
T1 construct: GST-Flklcd purified from sf9 recombinant baculovirus transfomnation (SUGEN, Inc.); host or cells: Sf9 insect cells, recombinant baculovirus
Method: This assay analyzes the tyrosine kinase activity of GST-Flk1 on poly(glu-tyr) peptides.
1. Corning 96-well ELISA plates (Corning Catalog No. 25805-96).
2. poly(glu-tyr) 4:1, lyophilizate (Sigma Catalog No. P0275), 1 mg/ml in sterile PBS.
3. PBS Buffer: for 1 L, mix 0.2 g KH2PO4, 1.15 g Na2HPO4, 0.2 g KCl and 8 g NaCl in approx. 900 ml dH2O. When all reagents have dissolved, adjust the pH to 7.2 with HCl. Bring total volume to 1 L with dH2O.
4. PBST Buffer: to 1 L of PBS Buffer, add 1.0 ml Tween-20.
5. TBB—Blocking Buffer: for 1 L, mix 1.21 g TRIS, 8.77 g NaCl, 1 ml TWEEN-20 in approximately 900 ml dH2O. Adjust pH to 7.2 with HCl. Add 10 g BSA, stir to dissolve. Bring total volume to 1 L with dH2O. Filter to remove particulate matter.
6. 1% BSA in PBS: add 10 g BSA to approx. 990 ml PBS buffer, stir to dissolve. Adjust total volume to 1 L with PBS buffer, filter to remove particulate matter.
8. GST-Flklcd purified from sf9 recombinant baculovirus transfomnation (SUGEN, Inc.).
12. Kinase Dilution Buffer (KDB): mix 10 ml Hepes (pH 7.5), 1 ml 5M NaCl, 40 μL 100 mM sodium orthovanadate and 0.4 ml of 5% BSA in dH2O with 88.56 ml dH2O.
13. NUNC 96-well V bottom polypropylene plates, Applied Scientific Catalog #AS-72092
14. EDTA: mix 14.12 g ethylenediaminetetraacetic acid (EDTA) with approx. 70 ml dH2O. Add 10 N NaOH until EDTA dissolves. Adjust pH to 8.0. Adjust total volume to 100 ml with dH2O.
15. 1° and 2° Antibody Dilution Buffer: mix 10 ml of 5% BSA in PBS buffer with 89.5 ml TBST.
16. Anti-phosphotyrosine rabbit polyclonal antisera (SUGEN, Inc.)
17. Goat anti-rabbit HRP conjugate.
18. ABST solution: To approx. 900 ml dH2O add 19.21 g citric acid and 35.49 g Na2HPO4. Adjust pH to 4.0 with phosphoric acid. Add 2,2′-Azinobis(3-ethyl-benzthiazoline-6-sulfonic acid (ABTS, Sigma, Cat. No. A-1888, hold for approx. ½ hour, filter.
19. 30% Hydrogen Peroxide.
20. ABST/H2O2: add 3 μl of H2O2 to 15 ml of ABST solution.
1. Coat Corning 96-well ELISA plates with 2 μg of polyEY in 100 μl PBS/well, hold at room temperature for 2 hours or at […] overnight. Cover plates to prevent evaporation.
2. Remove unbound liquid from wells by inverting plate. Wash once with TBST. Pat the plate on a paper towel to remove excess liquid.
3. Add 100 μl of 1% BSA in PBS to each well. Incubate, with shaking, for 1 hr. at room temperature.
5. Soak wells with 50 mM HEPES (pH7.5, 150 μl/well).
6. Dilute test compound with dH2O/4% DMSO to 4 times the desired final assay concentration in 96-well polypropylene plates.
7. Add 25 μl diluted test compound to each well of ELISA plate. In control wells, place 25 μl of dH2O/4% DMSO.
8. Dilute GST-Flk1 0.005 μg (5 ng)/well in KDB.
9. Add 50 μl of diluted enzyme to each well.
10. Add 25 μl 0.5 M EDTA to negative control wells.
11. Add 25 μl of 40 mM MnCl2 with 4×ATP (2 μM) to all wells (100 μl final volume, 0.5 μM ATP final concentration in each well).
12. Incubate, with shaking, for 15 minutes at room temperature.
13. Stop reaction by adding 25 μl of 500 mM EDTA to each well.
14. Wash 3× with TBST and pat plate on paper towel to remove excess liquid.
15. Add 100 μl per well anti-phosphotyrosine antisera, 1:10,000 dilution in antibody dilution buffer. Incubate, with shaking, for 90 min. at room temperature.
17. Add 100 μl/well of goat anti-rabbit HRP conjugate (1:6,000 in antibody dilution buffer). Incubate, with shaking, for 90 minutes are room temperature.
19. Add 100 μl room temperature ABST/H2O2 solution to each well.
20. Incubate, with shaking for 15 to 30 minutes at room temperature.
21. If necessary, stop reaction by adding 100 μl of 0.2 M HCl to each well.
22. Read results on Dynatech MR7000 ELISA reader with test filter at 410 nM and reference filter at 630 nM.

EGFR = EGFR (Homo sapiens, UniProt P00533); experiment: EGFR kinase inhibition; assay type: biochemical
Sequence of EGFR (P00533 25-1210, species assumed): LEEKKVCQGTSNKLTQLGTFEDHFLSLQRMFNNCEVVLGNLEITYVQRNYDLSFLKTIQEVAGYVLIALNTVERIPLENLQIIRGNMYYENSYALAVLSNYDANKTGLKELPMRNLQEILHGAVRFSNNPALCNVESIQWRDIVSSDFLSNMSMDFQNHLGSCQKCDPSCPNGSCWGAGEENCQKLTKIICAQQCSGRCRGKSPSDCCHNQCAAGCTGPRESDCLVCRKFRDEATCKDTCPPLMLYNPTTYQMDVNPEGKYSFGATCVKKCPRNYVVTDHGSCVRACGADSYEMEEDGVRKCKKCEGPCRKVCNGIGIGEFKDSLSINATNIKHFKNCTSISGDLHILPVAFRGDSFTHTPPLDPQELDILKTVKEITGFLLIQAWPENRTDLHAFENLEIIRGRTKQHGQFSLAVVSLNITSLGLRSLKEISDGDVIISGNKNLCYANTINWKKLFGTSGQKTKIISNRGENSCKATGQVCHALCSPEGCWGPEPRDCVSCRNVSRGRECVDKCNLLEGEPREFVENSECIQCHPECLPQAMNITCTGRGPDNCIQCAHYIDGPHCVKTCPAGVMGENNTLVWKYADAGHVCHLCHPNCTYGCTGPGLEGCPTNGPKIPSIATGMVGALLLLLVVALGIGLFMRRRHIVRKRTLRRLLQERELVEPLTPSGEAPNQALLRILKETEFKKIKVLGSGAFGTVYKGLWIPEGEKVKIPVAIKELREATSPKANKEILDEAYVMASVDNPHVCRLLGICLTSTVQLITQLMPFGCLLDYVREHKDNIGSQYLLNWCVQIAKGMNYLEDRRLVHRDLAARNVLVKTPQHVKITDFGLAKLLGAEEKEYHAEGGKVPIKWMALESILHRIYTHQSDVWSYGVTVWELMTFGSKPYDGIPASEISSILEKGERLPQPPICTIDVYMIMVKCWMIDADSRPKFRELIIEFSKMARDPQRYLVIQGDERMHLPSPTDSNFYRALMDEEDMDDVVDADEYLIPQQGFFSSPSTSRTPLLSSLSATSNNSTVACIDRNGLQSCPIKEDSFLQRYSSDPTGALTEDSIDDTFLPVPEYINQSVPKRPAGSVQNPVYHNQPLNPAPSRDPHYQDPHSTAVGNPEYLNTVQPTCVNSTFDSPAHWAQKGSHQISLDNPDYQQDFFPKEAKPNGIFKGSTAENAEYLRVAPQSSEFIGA

T1 sequence (P35918 784-1345 limits assumed): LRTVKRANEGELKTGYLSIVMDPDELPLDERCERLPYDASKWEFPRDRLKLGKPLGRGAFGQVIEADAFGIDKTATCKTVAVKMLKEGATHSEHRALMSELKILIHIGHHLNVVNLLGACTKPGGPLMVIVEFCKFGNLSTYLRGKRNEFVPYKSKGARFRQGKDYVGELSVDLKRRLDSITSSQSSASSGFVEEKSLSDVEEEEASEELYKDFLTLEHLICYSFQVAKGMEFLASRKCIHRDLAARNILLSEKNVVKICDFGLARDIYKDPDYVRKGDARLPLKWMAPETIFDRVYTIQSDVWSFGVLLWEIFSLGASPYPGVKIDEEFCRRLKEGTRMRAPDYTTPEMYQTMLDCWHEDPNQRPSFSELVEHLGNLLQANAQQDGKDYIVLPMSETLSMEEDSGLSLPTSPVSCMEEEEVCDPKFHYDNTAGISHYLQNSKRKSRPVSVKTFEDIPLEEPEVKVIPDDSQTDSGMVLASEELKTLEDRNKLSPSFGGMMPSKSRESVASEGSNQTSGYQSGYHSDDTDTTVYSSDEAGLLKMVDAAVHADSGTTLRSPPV

IC50 (FLK-1): 43 nM | IC50 (EGFR): 15000 nM
SMILES: CCN(CC)CCNC(=O)c1c(C)[nH]c(/C=C2\C(=O)Nc3cccc(-c4cccc(Br)c4)c32)c1C [Example 63, 5-[4-(3-Bromo-phenyl)-2-oxo-1,2-dihydro-indol-3-ylidenemethyl]-2,4-dimethyl-1H-pyrrole-3-carboxylic Acid (2-Diethylamino-ethyl)-amide]

IC50 (FLK-1): 29 nM | IC50 (EGFR): 16400 nM
SMILES: COc1ccc(-c2cccc3c2/C(=C/c2[nH]c(C)c(C(=O)NCCN4CCCC4)c2C)C(=O)N3)cc1 [Example 38, 5-[4-(4-Methoxy-phenyl)-2-oxo-1,2-dihydro-indol-3-ylidenemethyl]-2,4-dimethyl-1H-pyrrole-3-carboxylic Acid (2-Pyrrolidin-1-yl-ethyl)-amide]

IC50 (FLK-1): 41 nM | IC50 (EGFR): 12900 nM
SMILES: CCN(CC)CCNC(=O)c1c(C)[nH]c(/C=C2\C(=O)Nc3cccc(-c4cccc(Cl)c4)c32)c1C [Example 29, 5-[4-(3-Chloro-phenyl)-2-oxo-1,2-dihydro-indol-3-ylidenemethyl]-2,4-dimethyl-1H-pyrrole-3-carboxylic Acid (2-Diethylamino-ethyl)-amide]

IC50 (FLK-1): 18 nM | IC50 (EGFR): 7010 nM
SMILES: Cc1[nH]c(/C=C2\C(=O)Nc3cccc(-c4ccc(Br)cc4)c32)c(C)c1C(=O)NCCN(C(C)C)C(C)C [Example 60, 5-[4-(4-Bromo-phenyl)-2-oxo-1,2-dihydro-indol-3-ylidenemethyl]-2,4-dimethyl-1H-pyrrole-3-carboxylic Acid (2-Diisopropylamino-ethyl)-amide]

IC50 (FLK-1): 51 nM
SMILES: Cc1cc(C(=O)N2CC[C@H](N(C)C)C2)c(/C=C2\C(=O)Nc3cccc(-c4cccc(Cl)c4)c32)[nH]1 [Example 32, 4-(3-Chloro-phenyl)-3-[3-((S)-3-dimethylamino-pyrrolidine-1-carbonyl)-5-methyl-1H-pyrrol-2-ylmethylene]-1,3-dihydro-indol-2-one]

IC50 (FLK-1): 180 nM
SMILES: Cc1cc(C(=O)N2CC[C@@H](N(C)C)C2)c(/C=C2\C(=O)Nc3cccc(-c4ccc(Cl)cc4)c32)[nH]1 [Example 25, 4-(4-Chloro-phenyl)-3-[3-((R)-3-dimethylamino-pyrrolidine-1-carbonyl)-5-methyl-1H-pyrrol-2-ylmethylene]-1,3-dihydro-indol-2-one]

Second part, the molecule before the results:

SMILES: CCOC(=O)c1c(C)[nH]c(/C=C2\C(=O)Nc3cccc(-c4cccc(F)c4)c32)c1CCCN1CCN(C)CC1 [Example 18, 5-[4-(3-Fluoro-phenyl)-2-oxo-1,2-dihydro-indol-3-ylidenemethyl]-2-methyl-4-[3-(4-methyl-piperazin-1-yl)-propyl]-1H-pyrrole-3-carboxylic Acid Ethyl Ester]
IC50 (FLK-1): 420 nM | IC50 (EGFR): 9330 nM

SMILES: CCN(CC)CCNC(=O)c1c(C)[nH]c(/C=C2\C(=O)Nc3cccc(-c4cccc(F)c4)c32)c1C [Example 13, 5-[4-(3-Fluoro-phenyl)-2-oxo-1,2-dihydro-indol-3-ylidenemethyl]-2,4-dimethyl-1H-pyrrole-3-carboxylic Acid (2-Diethylamino-ethyl)-amide]
IC50 (FLK-1): 13 nM | IC50 (EGFR): 13100 nM

SMILES: Cc1[nH]c(/C=C2\C(=O)Nc3cccc(-c4ccc(Cl)cc4)c32)c(C)c1C(=O)NCCN1CCCC1 [Example 22, 5-[4-(4-Chloro-phenyl)-2-oxo-1,2-dihydro-indol-3-ylidenemethyl]-2,4-dimethyl-1H-pyrrole-3-carboxylic Acid (2-Pyrrolidin-1-yl-ethyl)-amide]
IC50 (FLK-1): 16 nM | IC50 (EGFR): 15900 nM

SMILES: Cc1[nH]c(/C=C2\C(=O)Nc3cccc(-c4ccc(F)cc4)c32)c(C)c1C(=O)NCCN1CCCC1 [Example 6, 5-[4-(4-Fluoro-phenyl)-2-oxo-1,2-dihydro-indol-3-ylidenemethyl]-2,4-dimethyl-1H-pyrrole-3-carboxylic Acid (2-Pyrrolidin-1-yl-ethyl)-amide]
IC50 (FLK-1): 21 nM | IC50 (EGFR): 16200 nM

SMILES: Cc1[nH]c(/C=C2\C(=O)Nc3cccc(-c4ccc(Cl)cc4)c32)c(C)c1C(=O)N1CCN(C)CC1 [Example 20, 4-(4-Chloro-phenyl)-3-[3,5-dimethyl-4-(4-methyl-piperazine-1-carbonyl)-1H-pyrrol-2-ylmethylene]-1,3-dihydro-indol-2-one]
IC50 (FLK-1): 230 nM
